Assay results as given in patent US9927424B2, “Assays for identifying compounds that modulate bitter taste” (Chromocell Corporation, priority 2013, dated 2018).
pEC50: −log10 of the molar value.

Experiments:
Format in all cases: cell-based
[1] = biological target: T1, TAS2R38 (PAV) (Homo sapiens, UniProt P59533, A49P/I296V); test: Calcium fluorescence functional assay, TAS2R38 (PAV) cell line with mouse Gα15; settings: for TAS2R38 (PAV) bitter receptor activity (functional response): 20 mM tastant, change in intracellular calcium; for pEC50: approximately, increasing concentrations of tastant
T1 construct: expressed in transfected cells
T1 sequence (P59533 1-333 A49P/I296V): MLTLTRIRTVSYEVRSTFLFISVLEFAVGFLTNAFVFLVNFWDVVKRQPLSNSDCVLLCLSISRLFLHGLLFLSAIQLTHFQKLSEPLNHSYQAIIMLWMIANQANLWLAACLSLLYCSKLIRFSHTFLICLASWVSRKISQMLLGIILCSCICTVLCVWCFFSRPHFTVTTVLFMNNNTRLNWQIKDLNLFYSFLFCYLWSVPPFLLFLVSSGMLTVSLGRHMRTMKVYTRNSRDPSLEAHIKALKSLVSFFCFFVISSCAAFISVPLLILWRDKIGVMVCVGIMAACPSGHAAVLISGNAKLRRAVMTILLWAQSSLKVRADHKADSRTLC
Procedure: (§1) A panel of cell lines expressing eight specific bitter taste receptors, a subset of the panel of twenty-five bitter receptors described in International Patent Application Publication WO 2010/088633 (see, e.g., Example 26), was used for the purpose of these analyses. Accordingly, each cell line of the panel expressed a human bitter taste receptor and mouse Gα15 signaling protein.
(§2) Each of the Examples below utilized the following functional assay: • Day 1: Stable cell lines were seeded onto black wall/clear bottom 96-well, plates (e.g., Corning, 3904). Approximately 40K cells were added per well and incubated at 37° C., 5% CO2 overnight in cell growth media (DMEM (Sigma, D5796) supplemented with 10% Fetal Bovine Serum (Sigma, 5178), 2 mM Glutamine (Sigma, G7513)). • Day 2: Growth media was discarded and cells were incubated at 37° C., 5% CO2 for 60 minutes in 100 ul of load solution containing 1× Ca-3 dye (Molecular Devices, R8090), 1% DMSO in buffer containing 130 mM NaCl, 2 mM CaCl2, 5 mM KCl, 1.2 mM MgCl2, 10 mM HEPES and 10 mM Glucose (pH 7.0). Probenecid was not included in the load solution. • Functional assay: After dye loading, cell plates were placed in a fluorescent plate reader (e.g., FDSS6000 (Hamamatsu, Japan)) and receptor stimulation was measured by adding 50 ul of 3× concentrated ligand/agonist stock. Fluorescence was monitored continuously for 10 s before agonist addition and for 100-250 s after stimulation with agonist.
(§3) Receptor Activation is defined as follows: • % Activation=[((Maximum signal fluorescence−Minimum signal fluorescence)−(Maximum control fluorescence−Minimum control fluorescence))/(Maximum buffer fluorescence−Minimum buffer fluorescence)]*100 • Functional Response=[(Maximum signal fluorescence−Minimum signal fluorescence)−(Maximum control fluorescence−Minimum control fluorescence)] • Signal fluorescence: refers to the change in fluorescence seen with addition of ligand • Control fluorescence: refers to the change in fluorescence seen with addition of buffer (negative control) • Calcium signals from ligand and control were normalized to the basal fluorescence of the cells prior to the stimulation.
(§4) A concentration analysis was performed and EC50 values were calculated by nonlinear regression using the formula: Y=Bottom+(Top−Bottom)/(1+10^((Log EC50−X)*Hill Slope)), X=log of dose or concentration, Y=Response (increasing as X increases), Top=maximum signal, Bottom=minimum signal. EC50 (half maximal effective concentration) refers to the molar concentration of the agonist which produces 50% of the maximum possible effective response from that agonist.

[2] = biological target: T2, TAS2R60 (Homo sapiens, UniProt P59551); test: Calcium fluorescence functional assay, TAS2R60 cell line with mouse Gα15; settings: for TAS2R60 bitter receptor activity (functional response): 20 mM tastant, change in intracellular calcium, data for potassium nitrate and potassium phosphate (dibasic) preliminary; for pEC50: approximately, increasing concentrations of tastant
T2 construct: expressed in transfected cells
T2 sequence (P59551 1-318): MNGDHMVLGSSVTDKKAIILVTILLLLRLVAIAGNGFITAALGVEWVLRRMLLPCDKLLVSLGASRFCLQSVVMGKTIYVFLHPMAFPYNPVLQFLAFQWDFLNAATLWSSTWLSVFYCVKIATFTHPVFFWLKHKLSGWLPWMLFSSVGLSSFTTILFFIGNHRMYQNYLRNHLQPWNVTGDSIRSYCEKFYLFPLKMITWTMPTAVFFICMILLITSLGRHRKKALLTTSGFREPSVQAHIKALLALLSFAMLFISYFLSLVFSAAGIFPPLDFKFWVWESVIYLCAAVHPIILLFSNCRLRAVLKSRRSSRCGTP
Procedure: Accordingly, each cell line of the panel expressed a human bitter taste receptor and mouse Gα15 signaling protein.
Probenecid was not included in the load solution. • Functional assay: After dye loading, cell plates were placed in a fluorescent plate reader (e.g., FDSS6000 (Hamamatsu, Japan)) and receptor stimulation was measured by adding 50 ul of 3× concentrated ligand/agonist stock. Fluorescence was monitored continuously for 10 s before agonist addition and for 100-250 s after stimulation with agonist.
as §3
A concentration analysis was performed and EC50 values were calculated by nonlinear regression using the formula: Y=Bottom+(Top−Bottom)/(1+10^((Log EC50−X)*Hill Slope)), X=log of dose or concentration, Y=Response (increasing as X increases), Top=maximum signal, Bottom=minimum signal.

[3] = biological target: T3, TAS2R13 (Homo sapiens, UniProt Q9NYV9); test: Calcium fluorescence functional assay, TAS2R13 cell line with mouse Gα15; settings: for TAS2R13 bitter receptor activity (functional response): 20 mM tastant, change in intracellular calcium; for pEC50: approximately, increasing concentrations of tastant
T3 construct: expressed in transfected cells
T3 sequence (Q9NYV9 1-303): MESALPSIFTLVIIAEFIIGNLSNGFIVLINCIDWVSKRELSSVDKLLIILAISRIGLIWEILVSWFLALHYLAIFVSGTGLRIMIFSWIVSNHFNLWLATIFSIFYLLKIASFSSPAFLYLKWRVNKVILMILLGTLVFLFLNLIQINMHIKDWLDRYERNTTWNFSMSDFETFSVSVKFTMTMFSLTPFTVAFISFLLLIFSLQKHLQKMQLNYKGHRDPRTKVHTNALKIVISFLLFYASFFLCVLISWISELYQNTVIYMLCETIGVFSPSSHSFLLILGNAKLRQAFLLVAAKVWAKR
Procedure: as §1, §2, §3, §4

[4] = biological target: T4, TAS2R9 (Homo sapiens, UniProt Q9NYW1); test: Calcium fluorescence functional assay, TAS2R9 cell line with mouse Gα15; settings: for TAS2R9 bitter receptor activity (functional response): 20 mM tastant, change in intracellular calcium; for pEC50: approximately, increasing concentrations of tastant
T4 construct: expressed in transfected cells
T4 sequence (Q9NYW1 1-312): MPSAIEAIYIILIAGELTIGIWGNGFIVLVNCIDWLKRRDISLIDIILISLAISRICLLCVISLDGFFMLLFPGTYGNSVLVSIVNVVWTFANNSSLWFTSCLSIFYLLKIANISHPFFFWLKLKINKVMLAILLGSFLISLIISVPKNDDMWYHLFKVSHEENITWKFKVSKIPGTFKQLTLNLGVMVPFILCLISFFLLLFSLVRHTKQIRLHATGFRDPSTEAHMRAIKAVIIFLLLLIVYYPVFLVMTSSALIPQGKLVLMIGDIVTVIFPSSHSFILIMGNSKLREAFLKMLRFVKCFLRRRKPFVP
Procedure: as §1, §2, §3, §4

Row | Compound | TAS2R38 (PAV) bitter receptor activity (functional response) [1] | TAS2R60 bitter receptor activity (functional response) [2] | TAS2R13 bitter receptor activity (functional response) [3] | TAS2R9 bitter receptor activity (functional response) [4] | pEC50 [1] | pEC50 [2] | pEC50 [3] | pEC50 [4]
1 | O=[N+]([O-])[O-].[K+] [potassium nitrate] | induced | induced | induced | induced |  |  |  | 
2 | O=S(=O)([O-])[O-].[K+].[K+] [potassium sulfate] | induced | induced | induced | induced |  |  |  | 
3 | O=C([O-])c1ccccc1.[K+] [potassium benzoate] | induced | induced | induced | induced | 2.00 to 2.30 | 2.00 to 2.30 | 2.00 to 2.30 | 2.00 to 2.30
4 | O=C([O-])[C@H](O)[C@@H](O)[C@H](O)[C@H](O)CO.[K+] [potassium gluconate] | induced | did not induce | induced | induced |  |  |  | 
5 | [Cl-].[K+] [KCl] | strongly and specifically responded |  |  |  | 1.82 to 2.30 |  |  | 
6 | CC(=O)[O-].[K+] [potassium acetate] | did not induce | induced | induced | induced |  | 2.00 to 2.30 | 2.00 to 2.30 | 2.00 to 2.30
7 | C/C=C/C=C/C(=O)[O-].[K+] [potassium sorbate] | induced | induced | induced | induced |  |  |  | 
8 | O=P([O-])([O-])O.[K+].[K+] [potassium phosphate (dibasic)] | induced | induced | induced | induced |  |  |  | 
